According to patent US6737383B1, “Herbicidal oxadiazolidines” (priority 1999, dated 2004):

What was measured:
bedstraw = test: Test B pre/postemergence bedstraw; assay type: in vivo, Galium aparine
Method in brief: (§1)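 Response is a visual 0-to-10 score relative to untreated plants, where 0 means no effect and 10 means complete control, taken twelve to sixteen days after application. Treatments went onto soil at planting and onto foliage of 1- to 4-leaf plants, using a surfactant-containing non-phytotoxic solvent.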

blackgrass = test: Test B pre/postemergence blackgrass; assay type: in vivo, Alopecurus myosuroides
Method in brief: as §1

surinam grass = test: Test B pre/postemergence surinam grass; assay type: in vivo, Brachiaria decumbens
Method in brief: as §1

cocklebur = test: Test B pre/postemergence cocklebur; assay type: in vivo, Xanthium strumarium
Method in brief: as §1

corn = test: Test B pre/postemergence corn; assay type: in vivo, Zea mays
Method in brief: as §1

giant foxtail = test: Test B pre/postemergence giant foxtail; assay type: in vivo, Setaria faberii
Method in brief: as §1

morningglory = test: Test B pre/postemergence morningglory; assay type: in vivo, Ipomoea hederacea
Method in brief: as §1

pigweed = test: Test B pre/postemergence pigweed; assay type: in vivo, Amaranthus retroflexus
Method in brief: as §1

rape = test: Test B pre/postemergence rape; assay type: in vivo, Brassica napus
Method in brief: as §1

soybean = test: Test B pre/postemergence soybean; assay type: in vivo, Glycine max
Method in brief: as §1

sugar beet = test: Test B pre/postemergence sugar beet; assay type: in vivo, Beta vulgaris
Method in brief: as §1

velvetleaf = test: Test B pre/postemergence velvetleaf; assay type: in vivo, Abutilon theophrasti
Method in brief: as §1

purple nutsedge = test: Test B pre/postemergence purple nutsedge; assay type: in vivo, Cyperus rotundus
Method in brief: as §1

smallflower flatsedge = test: Test B flood test smallflower flatsedge; assay type: in vivo, Cyperus difformis
Method in brief: (§2)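 Flood test on plants grown to the 2-leaf stage; treated plants kept in greenhouse twelve to sixteen days, then visually rated against controls on a 0 (no effect) to 10 (complete control) scale.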

duck salad = test: Test B flood test duck salad; assay type: in vivo, Heteranthera limosa
Method in brief: as §2

bamyardgrass = test: Test B flood test barnyardgrass; assay type: in vivo, Echinochloa crus-galli
Method in brief: as §2

[1] = Preemergence, Rate 62 g/ha, scale of 0 to 10 where 0 is no effect and 10 is complete control
[2] = Preemergence, Rate 250 g/ha, scale of 0 to 10 where 0 is no effect and 10 is complete control
[3] = Preemergence, Rate 500 g/ha, scale of 0 to 10 where 0 is no effect and 10 is complete control
[4] = Rate 62 g/ha, Postemergence, scale of 0 to 10 where 0 is no effect and 10 is complete control
[5] = Rate 125 g/ha, Postemergence, scale 0 to 10
[6] = Rate 125 g/ha, Preemergence, scale of 0 to 10 where 0 is no effect and 10 is complete control
[7] = Rate 500 g/ha, Postemergence, scale 0 to 10, 0 no effect, 10 complete control
[8] = Rate 62 g/ha, headed Pre-emergence (flood test species), scale 0 to 10 (0 no effect, 10 complete control)
[9] = Rate 125 g/ha, Pre-emergence, flood test species, scale 0 to 10 where 0 is no effect and 10 is complete control
[10] = Rate 250 g/ha, Pre-emergence, flood-test species, scale 0 to 10, 0 is no effect, 10 is complete control
[11] = Rate 500 g/ha, Pre-emergence, flood test species, scale 0 to 10 (0 no effect, 10 complete control)

COc1cc(C)cc(C)c1-n1c(=O)on(C(=O)N(c2ccc(F)cc2F)C(C)C)c1=O [Compound 223]
9: Plant response rating, Giant foxtail (giant foxtail; [3]) | Giant foxtail plant response rating (giant foxtail; [6])
5: Bedstraw plant response rating (bedstraw; [7]) | Plant response rating, Blackgrass (blackgrass; [3]) | Redroot pigweed plant response rating (pigweed; [7])
2: Cocklebur plant response rating (cocklebur; [7]) | Redroot pigweed plant response rating (pigweed; [5]) | Plant response rating (0 to 10; 0 is no effect, 10 is complete control), Sugarbeets (sugar beet; Rate 250 g/ha, Postemergence) | Plant response rating (0 to 10; 0 is no effect, 10 is complete control), Velvetleaf (velvetleaf; Rate 250 g/ha, Postemergence)
0: Bedstraw plant response rating (bedstraw; [1]) | Bedstraw plant response rating (bedstraw; [2]) | Bedstraw plant response rating (bedstraw; [6]) | Blackgrass plant response rating (blackgrass; [1]) | Blackgrass plant response rating (blackgrass; [4]) | Blackgrass plant response rating (blackgrass; [5]) | B. signalgrass plant response rating (surinam grass; [1]) | B. signalgrass plant response rating (surinam grass; [4]) | B. signalgrass plant response rating (surinam grass; Rate 125 g/ha, Postemergence, scale 0 (no effect) to 10 (complete control)) | B. signalgrass plant response rating (surinam grass; [6]) | Plant response rating (0 to 10; 0 is no effect, 10 is complete control), B. signalgrass (surinam grass; Rate 250 g/ha, Postemergence) | B. signalgrass plant response rating (surinam grass; [7]) | Cocklebur plant response rating (cocklebur; [1]) | Cocklebur plant response rating (cocklebur; [2]) | Plant response rating, Cocklebur (cocklebur; [3]) | Cocklebur plant response rating (cocklebur; [4]) | Cocklebur plant response rating (cocklebur; [5]) | Cocklebur plant response rating (cocklebur; [6]) | Plant response rating (0 to 10; 0 is no effect, 10 is complete control), Cocklebur (cocklebur; Rate 250 g/ha, Postemergence) | Corn plant response rating (corn; [1]) | Corn plant response rating (corn; [2]) | Plant response rating, Corn (corn; [3]) | Corn plant response rating (corn; [4]) | Corn plant response rating (corn; [5]) | Corn plant response rating (corn; [6]) | Plant response rating (0 to 10; 0 is no effect, 10 is complete control), Corn (corn; Rate 250 g/ha, Postemergence) | Corn plant response rating (corn; [7]) | Giant foxtail plant response rating (giant foxtail; [4]) | Giant foxtail plant response rating (giant foxtail; [5]) | Plant response rating (0 to 10; 0 is no effect, 10 is complete control), Giant foxtail (giant foxtail; Rate 250 g/ha, Postemergence) | Morningglory plant response rating (morningglory; [1]) | Redroot pigweed plant response rating (pigweed; [1]) | Redroot pigweed plant response rating (pigweed; [4]) | Redroot pigweed plant response rating (pigweed; [6]) | Rape plant response rating (rape; [1]) | Rape plant response rating (rape; [2]) | Plant response rating, Rape (rape; [3]) | Rape plant response rating (rape; [4]) | Rape plant response rating (rape; [5]) | Rape plant response rating (rape; [6]) | Plant response rating (0 to 10; 0 is no effect, 10 is complete control), Rape (rape; Rate 250 g/ha, Postemergence) | Rape plant response rating (rape; [7]) | Soybean plant response rating (soybean; [1]) | Soybean plant response rating (soybean; [2]) | Plant response rating, Soybean (soybean; [3]) | Soybean plant response rating (soybean; [6]) | Sugarbeets plant response rating (sugar beet; [1]) | Sugarbeets plant response rating (sugar beet; [2]) | Plant response rating, Sugarbeets (sugar beet; [3]) | Sugarbeets plant response rating (sugar beet; [4]) | Sugarbeets plant response rating (sugar beet; [6]) | Velvetleaf plant response rating (velvetleaf; [1]) | Velvetleaf plant response rating (velvetleaf; [2]) | Plant response rating, Velvetleaf (velvetleaf; [3]) | Velvetleaf plant response rating (velvetleaf; [4]) | Velvetleaf plant response rating (velvetleaf; [5]) | Velvetleaf plant response rating (velvetleaf; [6]) | Nutsedge plant response rating (purple nutsedge; [1]) | Nutsedge plant response rating (purple nutsedge; [4]) | Nutsedge plant response rating (purple nutsedge; [5]) | Nutsedge plant response rating (purple nutsedge; [6]) | Plant response rating (0 to 10; 0 is no effect, 10 is complete control), Nutsedge (purple nutsedge; Rate 250 g/ha, Postemergence) | Nutsedge plant response rating (purple nutsedge; [7]) | S. Flatsedge plant response rating (smallflower flatsedge; [8]) | S. Flatsedge plant response rating (smallflower flatsedge; [9]) | S. Flatsedge plant response rating (smallflower flatsedge; [10]) | S. Flatsedge plant response rating (smallflower flatsedge; [11]) | Ducksalad plant response rating (duck salad; [8]) | Ducksalad plant response rating (duck salad; [9]) | Ducksalad plant response rating (duck salad; [10]) | Ducksalad plant response rating (duck salad; [11]) | Barnyardgrass plant response rating (bamyardgrass; [8]) | Barnyardgrass plant response rating (bamyardgrass; [9]) | Barnyardgrass plant response rating (bamyardgrass; [10]) | Barnyardgrass plant response rating (bamyardgrass; [11])
3: Plant response rating, Bedstraw (bedstraw; [3]) | Bedstraw plant response rating (bedstraw; [4]) | Bedstraw plant response rating (bedstraw; [5]) | Plant response rating (0 to 10; 0 is no effect, 10 is complete control), Blackgrass (blackgrass; Rate 250 g/ha, Postemergence) | B. signalgrass plant response rating (surinam grass; Preemergence, Rate 250 g/ha, scale 0 to 10, 0 is no effect, 10 is complete control) | Morningglory plant response rating (morningglory; [5]) | Plant response rating (0 to 10; 0 is no effect, 10 is complete control), Redroot pigweed (pigweed; Rate 250 g/ha, Postemergence) | Soybean plant response rating (soybean; [4]) | Soybean plant response rating (soybean; [5]) | Plant response rating (0 to 10; 0 is no effect, 10 is complete control), Soybean (soybean; Rate 250 g/ha, Postemergence) | Sugarbeets plant response rating (sugar beet; [7]) | Velvetleaf plant response rating (velvetleaf; [7])
7: Giant foxtail plant response rating (giant foxtail; [1]) | Redroot pigweed plant response rating (pigweed; [2]) | Plant response rating, Redroot pigweed (pigweed; [3])
4: Plant response rating (0 to 10; 0 is no effect, 10 is complete control), Bedstraw (bedstraw; Rate 250 g/ha, Postemergence) | Blackgrass plant response rating (blackgrass; [2]) | Plant response rating, B. signalgrass (surinam grass; [3]) | Plant response rating (0 to 10; 0 is no effect, 10 is complete control), Morningglory (morningglory; Rate 250 g/ha, Postemergence) | Soybean plant response rating (soybean; [7])
1: Blackgrass plant response rating (blackgrass; [6]) | Blackgrass plant response rating (blackgrass; [7]) | Giant foxtail plant response rating (giant foxtail; [7]) | Morningglory plant response rating (morningglory; [2]) | Plant response rating, Morningglory (morningglory; [3]) | Morningglory plant response rating (morningglory; [4]) | Morningglory plant response rating (morningglory; [6]) | Sugarbeets plant response rating (sugar beet; [5])
6: Morningglory plant response rating (morningglory; [7])
